Patent US4804651A, “Methods and compositions for the treatment of psoriasis” (Board of Regents, The University of Texas System, priority 1987, dated 1989)
Where two headings read alike, the source gives them in different places.

Experiments:
[1] = cited from earlier work
[2] = tested on: Beagle dogs; details: cited from earlier work
[3] = tested on: patients with AIDS OR AIDS-related complex and HTLV-III/LAV viremia; details: cited from earlier work
[4] = in vivo; cited from earlier work
[5] = tested on: rats; details: cited from earlier work
[6] = tested on: patients (AIDS) recovered from Pneumocystis carinii pneumonia (PCP) and late AIDS-Related Complex (ARC); details: cited from earlier work
[7] = tested on: dogs; details: IV dose levels up to 85 mg/kg/day for 2 weeks; cited from earlier work
[8] = Progression of AIDS in the individual treated for psoriasis; assay type: in vivo, human; details: 800 mg orally per day
Text: Of the following examples, examples I through IV disclose toxicity data obtained from the manufacturer of AZT, Burroughs Wellcome Drug Co., developed during the course of obtaining FDA approval for use of the drug in the treatment of AIDS. However, treatment protocols effective in treating psoriasis are similar.
An individual developed severe psoriasis and AIDS-related complex (ARC). As their immunity diminished over the next eight months to a T4 count of 14/mm^3, the psoriasis became more extensive, including 60% of their body, all nails and digits.
Ten months after developing the ARC and psoriasis, the individual developed Pneumocystis carinii pneumonia (PCP) and esophageal candidiasis.

[9] = tested on: rats; details: IV dose levels up to 150 mg/kg/day for one month; cited from earlier work
[10] = tested on: rats; details: oral, up to 500 mg/kg/day; cited from earlier work
[11] = tested on: Cynomolgus monkeys; details: cited from earlier work
[12] = tested on: Cynomolgus monkeys; details: cited from earlier work; remark: listed apart in the source
[13] = Treatment of severe psoriasis in an individual with AIDS-related complex
[14] = tested on: pregnant rats; details: up to 500 mg/kg oral, gestation day 6 through 15; cited from earlier work
[15] = tested on: rats; details: intravenous (IV); cited from earlier work
[16] = tested on: cultured human lymphocytes; details: in vitro; cited from earlier work
[17] = tested on: mice; details: intravenous (IV); cited from earlier work
[18] = one female dog, sacrificed on day 14

SMILES: Cc1cn([C@H]2C[C@H](N=[N+]=[N-])[C@@H](CO[C@@H]3O[C@H](C(=O)O)[C@@H](O)[C@H](O)[C@H]3O)O2)c(=O)[nH]c1=O [GAZT, 5'-glucuronide of AZT]
- activity of the metabolite ([1]; in vivo): inactive
- metabolite identification ([1]; plasma and urine): major plasma and urinary metabolite
- clearance from plasma (metabolite) ([1]; plasma): rapidly cleared from plasma
- plasma level relative to the corresponding AZT level ([1]; plasma): 2-3 ×

SMILES: Cc1cn([C@H]2C[C@H](N=[N+]=[N-])[C@@H](CO)O2)c(=O)[nH]c1=O [azidothymidine, 3'-azido-3'-deoxythymidine]
- leukopenia and thrombocytopenia ([2]; Beagle dogs, oral, all dose levels (125, 250, 500 mg/kg/day), 2 weeks): Moderate to marked leukopenia and thrombocytopenia was noted at all dose levels
- vomiting and fecal alterations ([2]; Beagle dogs, oral, high doses, daily for 2 weeks): Vomiting and fecal alterations (with blood) were seen in dogs receiving high doses
- bone marrow and lymphoid tissue findings ([2]; Beagle dogs, oral, further studies): hypocellularity of the bone marrow; hypoactive lymphoid tissues were also noted
- gross gastrointestinal findings ([2]; high dose dogs and a mid-dose female, high dose female): hemorrhage in the gastrointestinal tract in the high dose dogs and a mid-dose female, as well as a maturational defect with mucosal atrophy in the intestinal tract of the high dose female were observed
- alkaline phosphatase, BUN, and creatinine [2, 18]: alkaline phosphatase, BUN, and creatinine were elevated
- weight loss [2, 18]: significant weight loss
- mild confusion or anxiety (number of patients) ([3]; 29 patients): Three
- transient elevations in transaminases (number of patients) ([3]; 29 patients): Five
- transient erythematous rash (number of patients) ([3]; 29 patients): one
- decline in hemoglobin ([3]; by six weeks): all patients had some decline in hemoglobin by six weeks, the change was not proportional to the starting dose
- deaths ([3]; during the year since the trial was initiated): Four
- anemia which warranted dose reduction or temporary interruption ([3]; human, in vivo, po): Twenty of 28 patients
- dose-limiting toxicity / response of neutropenia ([3]; human, in vivo): appeared to be the dose-limiting toxicity. Neutropenia responded favorably to reduction in dose of AZT
- effect on electrolytes or renal or cardiac function ([3]; human, in vivo): no effect on electrolytes or renal or cardiac function
- headache (number of patients) ([3]; human, in vivo): 8 patients
- neutropenia (number of patients) ([3]; human, in vivo): 13 patients
- generalized pruritus (number of patients) ([3]; one episode, 29 patients): one
- bone marrow biopsies ([3]; three patients): megaloblastic changes
- reversibility of anemia ([3]; when the drug is discontinued): reversible in most patients when the drug is discontinued
- side effects [4]: hematologic abnormalities such as anemia, neutropenia, bone marrow toxicity, headache, mild CNS symptoms, insomnia
- glucose ([5]; high dose female rats, day 89): A mild increase in glucose was observed only in high dose female rats on day 89
- clinical observation (staining of the anogenital area) ([5]; high dose male rats): occasional staining of the anogenital area in high dose male rats
- SGOT ([5]; high dose rats at various times): a mild decrease in SGOT in high dose rats at various times
- hematologic changes or gross pathologic changes ([5]; rats, 13 weeks oral): no hematologic changes or gross pathologic changes
- treatment related deaths ([5]; rats, 56, 167 or 500 mg/kg/day by gavage, 13 weeks): no treatment related deaths
- reduction in dosage or interruption of treatment ([6]; 250 mg every 4 hours (1.5 grams daily)): Many patients on AZT required a reduction in dosage or interruption of treatment, primarily because of anemia
- deaths (AZT group) ([6]; 250 mg every 4 hours, as of Sept. 18, 1986, 16 in patients receiving placebo): one
- patients requiring blood transfusions ([6]; human, in vivo): approximately 25%
- decreases in hemoglobin and neutrophils ([6]; second month of therapy, dose decreased or drug discontinued): decreases in hemoglobin and neutrophils occurred during the second month of therapy and appeared to be reversible if the dose was decreased or drug discontinued
- patients with greater than 25% reduction in hemoglobin ([6]; vs 13 of 137 patients receiving placebo, preliminary review): 47 of 145
- alterations [7]: No significant alterations were seen
- efficacy in relieving the progression of AIDS [8]: no efficacy in relieving the progression of this individual's AIDS
- changes [9]: no changes were noted
- histologic changes in liver and kidney [10]: very minimal histologic changes in the liver and kidney of a few animals were observed
- vomiting ([11]; Cynomolgus monkeys, high dose male, oral, 2 weeks): frequent vomiting in the high dose male
- RBC, HCT, Hgb ([11]; all treatment levels (125, 250, 500 mg/kg/day), oral 2 weeks, values still within normal limits): a slight nondose-related decrease (values still within normal limits) in RBC, HCT, Hgb at all treatment levels
- SGPT ([11]; treated males and the high dose female, values still within normal limits): a slight increase in SGPT (Values still within normal limits) in treated males and the high dose female
- recovery of hematology values ([12]; 26-39 day post-dosing recovery period): These values returned to normal limits during the 26-39 day post-dosing recovery period
- RBCs, hemoglobin, and hematocrit ([12]; 34, 100, or 300 mg/kg by gavage, day 21): dose-related decreases in RBCs, hemoglobin, and hematocrit at day 21
- hemoglobin and hematocrit ([12]; remainder of treatment period after day 21): hemoglobin and hematocrit remained stable
- RBCs ([12]; until the end of treatment): further reduced until the end of treatment
- psoriasis clearance ([13]; 800 mg orally per day): completely cleared
- time to complete clearing of psoriasis ([13]; 800 mg orally per day): two to three
- time to significant improvement in lesion pruritus ([13]; 800 mg orally per day): ≤ 24 h
- lesion pruritus ([13]; 800 mg orally per day, within 24 hours): a significant improvement in the lesion pruritus
- pruritus after AZT was held for 7 days and restarted at half dose ([13]; AZT held 7 days, restarted at half dose): The pruritus returned temporarily
- anemia ([13]; after a month, restarted at half dose): The AZT was held for 7 days after a month for anemia
- time until psoriasis began to clear ([13]; in vivo): 24 h
- improvement of psoriasis ([13]; over a period several weeks): significant improvement over a period several weeks
- nail regrowth and psoriasis at three months ([13]; three months): nail regrowth was normal and the psoriasis was completely clear
- maternal weight [14]: a slight decrease in maternal weight was noted
- LD50 [15]: greater than 70 mg/kg
- clastogenicity [16]: clastogenic
- LD50 [17]: greater than 70 mg/kg
- Cmax ([1]; Group A, IV, 1.0 mg/kg Q 8 hr): 0.44 ± 0.14 microgram/ml
- Cmax ([1]; Group A, oral, 2.0 mg/kg Q 8 hr): 0.53 ± 0.11 microgram/ml
- Cmax ([1]; Group B, IV, 2.5 mg/kg Q 8 hr): 1.17 ± 0.49 microgram/ml
- Cmax ([1]; Group B, oral, 5.0 mg/kg Q 8 hr): 1.37 ± 0.58 microgram/ml
- Cmax ([1]; Group C, IV, 2.5 mg/kg Q 4 hr): 1.06 ± 0.03 microgram/ml
- Cmax ([1]; Group C, oral, 5.0 mg/kg Q 4 hr): 1.57 ± 0.81 microgram/ml
- Cmax ([1]; Group D, IV, 5.0 mg/kg Q 4 hr): 2.28 ± 0.31 microgram/ml
- Cmax ([1]; Group D, oral, 10.0 mg/kg Q 4 hr): 3.14 ± 0.73 microgram/ml
- Cmax ([1]; Group E, IV, 7.5 mg/kg Q 4 hr): 4.71 ± 0.79 microgram/ml
- Cmax ([1]; Group E, oral, 15.0 mg/kg Q 4 hr): 10.40 ± 3.47 microgram/ml
- total body clearance ([1]; IV doses from 1.0 to 5.0 mg/kg): approximately 1900 ml/min/70 kg
- dose excreted unchanged in the urine as AZT ([1]; IV dosing): about 25%
- plasma decay after the end of infusion ([1]; IV): biexponential decay after the end of infusion indicating two-compartmental pharmacokinetics
- mean half-life ([1]; all dose levels, IV and oral dosing): approximately 1.0 hr
- dose proportionality of Cmax and AUC ([1]; between 5.0 and 7.5 mg/kg IV and 10.0 and 15 mg/kg oral): a disproportional increase in peak concentrations (Cmax) and area under the plasma-concentration time curve (AUC)
- drug or metabolite accumulation ([1]; chronic IV or oral dosing): No unexpected drug or metabolite accumulation was observed
- dose proportionality of concentrations ([1]; doses to 5.0 mg/kg IV and 10 mg/kg oral): increased proportionally with doses to 5.0 and 10 mg/kg, for IV and oral administration respectively, indicating dose-independent kinetics up to these dosages
- renal clearance ([1]; estimated): about 500 ml/min
- bioavailability ([1]; oral, all dose levels): 60-70%
- cause of incomplete bioavailability ([1]; oral): appears to be due to first-pass metabolism, rather than reduced absorption
